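Protocol summary: plate cells (96-well), add compound at 5 concentrations, incubate 48 h, interpolate endpoints linearly. GI50: concentration for 50% inhibition of growth. At the TGI there is no net growth.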
What was measured:
Assay in all cases: DTP human tumour cell line panel, 48 h; in the data active means GI50 below about 0.43 µM; inactive means the rest
[1] = system: HS 578T breast
[2] = system: SN12C renal
[3] = system: SK-MEL-28 melanoma
[4] = system: BT-549 breast
[5] = system: A498 renal
[6] = system: OVCAR-8 ovarian
[7] = system: K-562 leukemia
[8] = system: NCI-H460 lung
[9] = system: HT29 colon
[10] = system: OVCAR-3 ovarian
[11] = system: T-47D breast
[12] = system: LOX IMVI melanoma
[13] = system: MOLT-4 leukemia
[14] = system: NCI/ADR-RES ovarian
[15] = system: TK-10 renal
[16] = system: OVCAR-5 ovarian
[17] = system: CAKI-1 renal
[18] = system: UACC-62 melanoma
[19] = system: OVCAR-4 ovarian
[20] = system: ACHN renal
[21] = system: MDA-MB-231 breast
[22] = system: UO-31 renal
[23] = system: HCT-15 colon
[24] = system: SF-268 CNS
[25] = system: KM12 colon
[26] = system: EKVX NSCLC
[27] = system: RPMI-8226 leukemia
[28] = system: 786-0 renal
[29] = system: NCI-H522 lung
[30] = system: CCRF-CEM leukemia
[31] = system: HOP-92 NSCLC
[32] = system: SF-295 CNS
[33] = system: COLO 205 colon
[34] = system: SNB-19 CNS
[35] = system: SNB-75 CNS
[36] = system: MDA-MB-435
[37] = system: HL-60(TB) leukemia
[38] = system: MCF7 breast
[39] = system: SW-620 colon
[40] = system: HCT-116 colon
[41] = system: DU-145 prostate
[42] = system: NCI-H226 lung
[43] = system: SK-MEL-5 melanoma
[44] = system: PC-3 prostate
[45] = system: MALME-3M melanoma
[46] = system: M14 melanoma
[47] = system: NCI-H23 lung
[48] = system: UACC-257 melanoma
[49] = system: HOP-62 NSCLC
[50] = system: SF-539 CNS
[51] = system: A549 NSCLC
[52] = system: U251 CNS
[53] = system: SK-MEL-2 melanoma
[54] = system: SK-OV-3 ovarian
[55] = system: HCC-2998 colon
[56] = system: IGROV1 ovarian

Cc1cn(-c2ccc(S(C)(=O)=O)cc2)c(-c2ccc(Cl)cc2)n1
inactive: GI50 [1] > 100 µM | GI50 [2] > 100 µM | GI50 [3] > 100 µM | GI50 [4] > 100 µM | GI50 [5] > 100 µM | GI50 [6] > 100 µM | GI50 [7] > 100 µM | GI50 [8] > 100 µM | GI50 [9] > 100 µM | GI50 [10] > 100 µM | GI50 [11] > 100 µM | GI50 [12] > 100 µM | GI50 [13] > 100 µM | GI50 [14] > 100 µM | GI50 [15] > 100 µM | GI50 [16] > 100 µM | GI50 [17] > 100 µM | GI50 [18] > 100 µM | GI50 [19] > 100 µM | GI50 [20] > 100 µM | GI50 [21] > 100 µM | GI50 [22] > 100 µM | GI50 [23] > 100 µM | GI50 [24] > 100 µM | GI50 [25] > 100 µM | GI50 [26] > 100 µM | GI50 [27] > 100 µM | GI50 [28] > 100 µM | GI50 [29] > 100 µM | GI50 [30] > 100 µM | GI50 [31] > 100 µM | GI50 [32] > 100 µM | GI50 [33] > 100 µM | GI50 [34] > 100 µM | GI50 [35] > 100 µM | GI50 [36] > 100 µM | GI50 [37] > 100 µM | GI50 [38] > 100 µM | GI50 [39] > 100 µM | GI50 [40] > 100 µM | GI50 [41] > 100 µM | GI50 [42] > 100 µM | GI50 [43] > 100 µM | GI50 [44] > 100 µM | GI50 [45] > 100 µM | GI50 [46] > 100 µM | GI50 [47] > 100 µM | GI50 [48] > 100 µM | GI50 [49] > 100 µM | GI50 [50] > 100 µM | GI50 [51] > 100 µM | GI50 [52] > 100 µM | GI50 [53] > 100 µM | GI50 [54] > 100 µM | GI50 [55] > 100 µM | GI50 [56] > 100 µM
> 100 µM: TGI [1] | TGI [2] | TGI [3] | TGI [4] | TGI [5] | TGI [6] | TGI [7] | TGI [8] | TGI [9] | TGI [10] | TGI [11] | TGI [12] | TGI [13] | TGI [14] | TGI [15] | TGI [16] | TGI [17] | TGI [18] | TGI [19] | TGI [20] | TGI [21] | TGI [22] | TGI [23] | TGI [24] | TGI [25] | TGI [26] | TGI [27] | TGI [28] | TGI [29] | TGI [30] | TGI [31] | TGI [32] | TGI [33] | TGI [34] | TGI [35] | TGI [36] | TGI [37] | TGI [38] | TGI [39] | TGI [40] | TGI [41] | TGI [42] | TGI [43] | TGI [44] | TGI [45] | TGI [46] | TGI [47] | TGI [48] | TGI [49] | TGI [50] | TGI [51] | TGI [52] | TGI [53] | TGI [54] | TGI [55] | TGI [56]
